Source: PubChem BioAssay AID602487 (The Scripps Research Institute Molecular Screening Center, 2012)
The source made the active and inactive calls. No rule for the calls is given here.

System: SARS coronavirus 3C-like protease (3CLpro)
Experiment: SARS 3CLpro protease inhibitors, late-stage follow-up, biochemical, fluorescence, single concentration, set 5 (AID 602487)
Conditions: purified 3CLpro, fluorogenic substrate cleavage; at 100 µM; active compounds read high

| Structure (SMILES) | inhibition |
| --- | --- |
| CC(C)C(=O)Nc1ccc(N(Cc2ccsc2)C(=O)Cn2cc(-c3ccccc3)nn2)cc1 | 3.7% (inactive) |
| CC(=O)Nc1ccc(N(C(=O)Cn2ccnn2)C(C(=O)NC(C)(C)C)c2ccsc2)cc1 (stereo not given) | 5.4% (inactive) |
| CC(=O)Nc1ccc(N(C(=O)Cn2cc([Si](C)(C)C)nn2)C(C(=O)NC(C)(C)C)c2ccsc2)cc1 (stereo not given) | -3.9% (inactive) |
| CC(C)C(=O)Nc1ccc(N(Cc2ccsc2)C(=O)Cn2cc([Si](C)(C)C)nn2)cc1 | 4.5% (inactive) |
| CC(C)C(=O)Nc1ccc(N(Cc2ccsc2)C(=O)Cn2ccnn2)cc1 | 26.1% (inactive) |
